Test results reported in PubChem BioAssay AID2305 (GlaxoSmithKline (GSK), 2010).
pIC50: −log10 of the molar value.

test system: P. falciparum 3D7 growth, pLDH absorbance; assay: P. falciparum 3D7 growth inhibition, dose response, strain 3D7 (AID 2305)

Compound	pIC50
CC(C)CSc1cc(C(=O)Nc2cc(Cl)ccc2O)ccn1	6.17
N#Cc1ccc(-c2ccc(C(=O)NCCCCN3CC=C(c4ccc5c(c4OCC4CC4)CCCC5)CC3)cc2)cc1	6.21
CCCCOc1cc2[nH]cc(C(=O)OCC)c(=O)c2cc1OCCCC	6.70
CC(C)(C)c1ccc(CN2CCCCC(NC(=O)c3cc(-c4ccccc4F)cs3)C2)cc1 (stereo not drawn)	6.57
C=CCc1cc(Br)ccc1OCCCOc1c(N)nc(N)nc1N	6.72
CCOC(=O)c1cn(CC)c2cc(N3CCCCCC3)c(F)cc2c1=O	6.39
Cc1ccccc1C1CCN(C2CCC(NC(=O)/C=C/c3c(F)ccc(F)c3F)CC2)CC1 (stereo not drawn)	5.90
CN(C)CCCOc1ccc(-c2csc(NC(N)=NCc3ccccc3)n2)cc1	6.55
O=P(O)(O)Oc1c(Br)cc(Br)cc1-c1cc(Br)cc(Br)c1O	6.77
CS(=O)(=O)c1cccc(-c2cnc3[nH]cc(-c4ccc(CCC(=O)O)cc4)c3c2)c1	6.20
COc1ccc(CNCCCCCCNCc2ccc(OC)c3ccccc23)c2ccccc12	6.24
O=C(Nc1ccc(-c2cccc(-c3nc4ccc(C(F)(F)F)cc4[nH]3)c2)cc1)c1csnn1	6.10
CC(Cc1ccc(NC(=O)c2ccc(CC(C)NCc3ccc(Cl)cc3)cc2)cc1)NCCc1cccc(Cl)c1 (stereo not drawn)	6.35
CC(C)Nc1cc(C(=O)N[C@@H](Cc2ccccc2)[C@H](O)CNCc2cccc(C(F)(F)F)c2)c(F)c(N2CCCCS2(=O)=O)c1	6.10
O=C(Nc1cccc(-c2ccc(NCCCN3CCCC3)nc2)c1)c1ccccc1	6.06
CC(Cc1ccc(C(=O)Nc2ccc(CC(C)NCCc3cccc(Cl)c3)cc2)cc1)NCCc1ccc(C(F)(F)F)cc1 (stereo not drawn)	6.24
COc1ccc2nccc([C@@H](O)CN3CCC(NCc4cc5ccccc5[nH]c4=O)CC3)c2c1	6.74
CC1(C)CC(NC(=O)NC2CCN(Cc3ccccc3)CC2)CC(C)(CNC(=O)NC2CCN(Cc3ccccc3)CC2)C1 (stereo not drawn)	6.02
CC(C)CN1CCC(COc2ccc3ncn(-c4cc(O[C@H](C)c5ccccc5C(F)(F)F)c(C(N)=O)s4)c3c2)CC1	6.21
O=C(NC1CC1)c1cnc(N2CCC(Oc3ccc(Cl)cc3)CC2)c(Cl)c1	5.96
O=C(Nc1ccc2nc(-c3ccccc3)[nH]c2c1)c1cc(-c2ccc3c(c2)OCCO3)n[nH]1	6.11
CCc1ccc(CN2CCC(NC(=O)c3cc(-c4ccc(N(C)C)cc4)cs3)C2)cc1 (stereo not drawn)	5.84
COc1ccc2ncc(F)c([C@H](O)CN3CCC(NCc4cc5c(cn4)OCCO5)CC3)c2c1	6.54
Fc1ccc(-c2cncc(-c3ccc(F)cc3)n2)cc1	6.19

Compound	pIC50
COc1ccc(C2C(C(=O)Nc3cc(OC)c(OC)c(OC)c3)c3cc(OC)c(OC)cc3C(=O)N2C)cc1 (stereo not drawn)	6.10
CCOC(=O)c1ccc(NC(=O)N[C@H]2CCN(CCCCCNC(=O)/C=C/c3ccc(Cl)c(Cl)c3)C2)cc1	6.13
O=C(NC1CCCCC1)c1ccc(O)c(-c2cccc(C(F)(F)F)c2)c1	6.15
C[C@@H](Oc1cc(-n2cnc3ccc(NC(=O)CCN4CCCCC4)cc32)sc1C(N)=O)c1ccccc1Cl	6.00
Cc1cnc(C(=O)Nc2cccc(-c3ccc(-c4nc5ccc(F)cc5[nH]4)cc3)c2)cn1	6.19
CCN(CC)CCCC(C)Nc1ccnc2ccc(OC)cc12 (stereo not drawn)	6.09
C#C[C@H]1O[C@@H](n2cnc3c(Nc4cc(Br)cc(C(F)(F)F)c4)ncnc32)[C@H](O)[C@@H]1O	5.99
FC(F)(F)c1ccc2nc(-c3ccc(-c4ccc(CNCc5cnn(-c6ccccc6)n5)cc4)s3)[nH]c2c1	6.34
Nc1nc2c(c(=O)[nH]1)CN(S(=O)(=O)c1ccc(C(=O)N[C@@H](CCC(=O)O)C(=O)O)cc1)CC2	6.82
Cc1c(-c2cccc(C(C)(C)NC3CCN(Cc4ccccc4)CC3)c2)cnc(N)c1C	6.24
CCc1ccc(NC(=O)c2ccc(CN3CCCN(Cc4cccs4)CC3)cc2)cc1	6.08
N#Cc1ccc(-c2nc3c(N4CCCC4)cccc3n2CCNCc2ccccc2)cc1	6.23
COc1cc(OC)c(OC)cc1C=NNc1cc(C)nc2ccccc12	6.52
CC(=O)c1ccc(-c2ccc(C(=O)NCCCCN3CCC(c4ccc5c(c4O)CCCC5)CC3)cc2)cc1	6.12
CC(C)C[C@H](NC(=O)c1ccc(OCCN2CCOCC2)cc1)C(=O)N[C@H](/C=N/N1CC(=O)NC1=O)CCc1ccccc1	6.55
COc1ccc(C2N=C(N)N=C(N)N2c2ccc(Cl)cc2)cc1OC (stereo not drawn)	6.00
COc1ccc2nccc(N(C)CC3(O)CCC(NCc4ccc5c(n4)NC(=O)CS5)CC3)c2n1 (stereo not drawn)	6.15
O=[N+]([O-])c1cccc(CNCC2CCN(Cc3ccc(-c4ccccc4)cc3)CC2)c1	6.60
CCc1c(CCNCCCCCCNCCc2ccc(OC)cc2)ccc(OC)c1OC	6.06
CCNc1cc(C(=O)N[C@@H](Cc2ccccc2)[C@H](O)CNCCC(C)(C)C)c(F)c(N2CCCCS2(=O)=O)c1	6.10
O=C(CSc1nccn1C1CCCCC1)Nc1cc(C(F)(F)F)ccc1Cl	6.40
O=c1cc(NCCCCNCc2ccc(Br)c(Br)c2)[nH]c2ccccc12	6.07
c1cc(CNC2Cc3ccccc3C2)cc(-c2cnc(N3CCNCC3)nc2)c1	6.03
O=C(Nc1ccc([N+](=O)[O-])cc1)Nc1nc2ccc(Cl)cc2s1	6.08
